Laboratory results taken from the SangsterLogP compilation.

Experiment: method code SF-HPLC, from Li, N. Y., Li, Y., & Gorrod, J. W. (1992). Determination of partition coefficients and ionisation constants of(S)(-)-nicotine and certain metabolites. Med. Sci. Res., 20(23)901-902.
Settings: pH 2.0

| SMILES | logD |
| --- | --- |
| O=C(O)CCC(=O)c1cccnc1 | -1.06 |
| O=C(O)Cc1cccnc1 | -2.42 |

Same assay, conditions: pH 7.4

| SMILES | logD |
| --- | --- |
| CN1C(=O)CCC1c1ccc[n+]([O-])c1 (centres undefined) | -2.54 |
| CN1C(=O)C(O)CC1c1cccnc1 (centres undefined) | -1.22 |

Results, then the compound that gave them:

| logD | SMILES |
| --- | --- |
| 0.07 | CN1C(=O)CC[C@H]1c1cccnc1 |
| -0.13 | CNC(=O)CCC(=O)c1cccnc1 |

Same assay, conditions: pH 12.0

| SMILES | logD |
| --- | --- |
| O=C1CC[C@@H](c2cccnc2)N1 | -0.4 |
| CN1C(=O)CCC1(O)c1cccnc1 (centres undefined) | -0.57 |
| O=C1CCC(c2ccc[n+]([O-])c2)N1 (centres undefined) | -1.01 |
